From PMC10629879 (Frontiers in drug delivery, 2022)

Key:
[1] = test system: isolated mouse brain microvessels; assay: 125I-insulin surface binding and internalization in isolated brain microvessels with endocytosis inhibitors; format: cell-based; settings: relative to vehicle; for amount of 125I-insulin internalized, difference vs vehicle (increase): inhibitor 15 min 37°C (monensin 10 μM, p = 0.079 not significant; CPZ 2.8 mM in 20% MeOH, p = 0.018), then 125I-insulin 15 min 37°C, cytoplasmic + membrane fraction; for microvessel surface binding of 125I-insulin, difference vs vehicle (increase): ~90 μg protein, inhibitor 15 min 37°C (monensin 10 μM; CPZ 2.8 mM in 20% MeOH), then 125I-insulin 400,000 CPM 15 min 37°C, acid-wash reversible binding, gamma counter, 2-3 biological replicates
Experimental: Whole brains were pooled and homogenized in chilled isolation buffer (DMEM, 25 mM HEPES, pH 7.4, 1% (w/v) dextran and 0.5% BSA) with a Dounce homogenizer. A range of 8–20 brains were pooled each experimental day. The homogenate was poured once through a 300 μm mesh, then twice through a 100 μm mesh. The filtrate was combined with an equivalent volume of chilled 40% dextran in isolation buffer and centrifuged at 3000 g for 30 min at 4°C. The pellet was resuspended in 1 ml of isolation buffer and pipetted twice through a 20 μm pluriStrainer® mesh (pluriSelect Life Science, Leipzig, Germany), before a final rinse with isolation buffer. […] The pellet was resuspended in 1 ml of PBS and spun at 500 g for 3 min at 4°C three times.
Briefly, the suspended pellet was evenly split between treatment groups, with two technical replicates per group. On average, each binding assay involved approximately 90 μg protein from the isolated microvessels in 40–45 μL. Each study was repeated with separate isolated microvessels for 2-3 biological replicates per study. Microvessels were treated with vehicle or an endocytosis inhibitor. Inhibitors were made up in incubation buffer and/or MeOH. Final concentrations for inhibitors include: monensin (10 μM), CPZ (2.8 mM in 20% MeOH), and filipin III (2 μg/ml in 0.2% MeOH) with respective vehicle MeOH controls. […] Samples were centrifuged at 10,000 g for 2 min at 4°C, and the supernatants were collected. The pellets were resuspended in incubation buffer, centrifuged at 4,225 g for 2 min at 4°C, and the supernatants were combined with the previous ones. The radioactivity in the pellets and combined supernatants were measured in a gamma counter (Wizard^2, PerkinElmer). In order to determine the amount of substrate bound to the cell surface, the pellet was resuspended in 400 μL of chilled acid wash buffer (0.2 M glycine, 0.15 M NaCl) to strip the surface of reversibly bound substrates on ice for 6 min, centrifuged at 4,225 g for 2 min at 4°C. The supernatant was collected and measured in a gamma counter as before to determine the amount of reversible binding (RB) at the plasma membrane, which we have called surface binding. To determine the amount of substrate internalized, the pellet was resuspended in 400 μL of chilled 1% BSA in deionized water and incubated for 1 h on ice to lyse the cells. The sample was centrifuged as before, the supernatant was collected, and the pellet was suspended again in 1% BSA and incubated on ice for 30 min. The sample was centrifuged, the supernatant was combined with the previous one, and both supernatant and pellet were measured in a gamma counter. […]
Percentages were calculated by dividing the measurement of interest (surface binding or internalization) by the total counts present in the sample and multiplying by 100. […]

insulin receptor = target: T1, insulin receptor (Mus musculus, UniProt P15208); assay: In vivo regional 125I-S961 binding at the BBB after IV monensin pre-treatment; settings: 30 min IV pre-treatment, 100 μL of 50 μM monensin in 10% MeOH in 0.1% BSA/LR; 125I-S961 circulated 5 min; olfactory bulb and 10 brain regions; two-way ANOVA treatment p = 0.0008, no post hoc differences; n = 6/group
T1 construct: from tissue; host or cells: living mouse; brain vasculature (olfactory bulb and 10 dissected brain regions)
Experimental: In anesthetized mice, the jugular vein was exposed and a 100 μL IV injection containing vehicle (10% MeOH in 0.1% BSA/LR) or monensin (50 μM in 10% MeOH in 0.1% BSA/LR) was administered. Thirty min later, a second 100 μL IV injection containing 1 × 10^6 ^125I-[…] was administered and circulated for 5 min. Blood was collected from the descending aorta, the olfactory bulbs and whole brains removed, and whole brains dissected into 10 brain regions according to the method by [Glowinski and Iversen, (1966)]. The amount of radioactivity in each region was counted in a gamma counter (Wizard^2, PerkinElmer) and corrected for the % injected ^125I-[…] (based on injection checks) and divided by the weight of the tissue (g) to get %Inj/g levels.

blood-brain barrier [2] = format: in vivo, mouse; settings: 50 μM monensin IV pre-treatment 30 min vs vehicle
Experimental: The reaction started with the addition of 10 μg chloramine-T in 0.25 M PB and terminated 1 min later with addition of 100 μg sodium metabisulfite. ^131I-albumin was labeled was labeled the same way except used 2 mCi ^131I (Perkin-Elmer, Waltham, MA, United States). ^131I-albumin was used as a vascular marker for the ^125I-transferrin multiple-time regression analysis transport studies as previously described ([Rhea et al., 2018]). A Sephadex G-10 column (Sigma-Aldrich) was used to separate labeled peptides and proteins from free iodine. Protein labeling was characterized by 15% trichloroacetic acid (TCA) precipitation. The radioactively labeled substrates we injected were quality-controlled materials, negating the overestimation of free ^125I.
FIGURE 3 Role of clathrin in transferrin hypothalamic BBB transport.

blood-brain barrier [3] = assay: In situ brain perfusion: 125I-insulin BBB transport (Ki) and vascular binding (Vi) after inhibitor pre-perfusion; format: in vivo, mouse; settings: for effect on 125I-insulin transport (Ki) or vascular binding (Vi) (in words): whole brain or olfactory bulb
Experimental: Following anesthesia, the thoracic cavity was opened and the descending thoracic aorta was clamped and jugular veins were cut to allow blood to drain from the brain vascular space. A 26-gauge butterfly needle was inserted into the left ventricle of the heart and mice were pre-perfused with vehicle or inhibitor at a rate of 2 ml/min. Mice were perfused with vehicle (1% MeOH in Zlokovic buffer: 7.19 g/L NaCl, 0.3 g/L KCl, 0.28 g/L CaCl2, 2.1 g/L NaHCO3, 0.16 g/L KH2PO4, 0.17 g/L anhydrous MgCl2, 0.99 g/L D-glucose and 1% BSA) ± 5 μM monensin or 2 μg/ml filipin III. […] Mice were perfused for timepoints ranging from 0.5 to 5 min. Whole brains, olfactory bulbs, and the hypothalamus were collected, weighed, and measured for radioactivity in a gamma counter. Brain/perfusate ratios (μL/g) were calculated by dividing the cpm per Gram of tissue by the cpm per μL of perfusate and plotted against perfusion time.
Regression analysis and other statistical analyses were performed using Prism 8.0 (GraphPad Software Inc., San Diego, CA, United States). For microvessel binding assays, the means are reported with their standard error terms and compared by a Student’s t test was. p values less than 0.05 were considered statistically significant. For in situ brain perfusion studies, linear regressions were performed on the brain/serum or brain/perfusate ratios using GraphPad Prism software. Linear regression lines were compared statistically with the Prism 8.0 software package. They are reported with their correlation coefficients (r) and linear regression p values.

[4] = hypothalamus, 2 μg/ml filipin pre-perfusion 10 min
[5] = olfactory bulb, 2 μg/ml filipin pre-perfusion 10 min
[6] = whole brain, 2 μg/ml filipin pre-perfusion 10 min

T1 sequence (P15208 28-748 limits assumed): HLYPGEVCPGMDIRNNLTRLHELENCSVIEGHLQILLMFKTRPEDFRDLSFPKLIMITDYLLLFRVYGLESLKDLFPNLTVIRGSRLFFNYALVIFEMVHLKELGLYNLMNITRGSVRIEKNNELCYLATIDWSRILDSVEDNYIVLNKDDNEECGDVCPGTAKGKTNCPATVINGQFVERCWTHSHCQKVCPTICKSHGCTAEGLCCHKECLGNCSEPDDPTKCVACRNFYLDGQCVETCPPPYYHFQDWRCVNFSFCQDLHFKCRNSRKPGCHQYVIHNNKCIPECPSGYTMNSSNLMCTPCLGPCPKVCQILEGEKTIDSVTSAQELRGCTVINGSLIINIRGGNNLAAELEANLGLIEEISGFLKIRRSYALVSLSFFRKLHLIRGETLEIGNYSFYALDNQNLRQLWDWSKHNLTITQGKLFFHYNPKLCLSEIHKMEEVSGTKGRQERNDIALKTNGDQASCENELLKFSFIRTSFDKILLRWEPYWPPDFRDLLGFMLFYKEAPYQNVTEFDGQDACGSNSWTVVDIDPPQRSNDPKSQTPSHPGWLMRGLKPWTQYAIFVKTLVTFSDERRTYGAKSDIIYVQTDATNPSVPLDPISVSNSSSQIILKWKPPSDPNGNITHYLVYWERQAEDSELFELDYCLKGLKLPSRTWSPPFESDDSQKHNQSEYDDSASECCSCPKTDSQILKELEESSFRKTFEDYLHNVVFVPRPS
T1 sequence (P15208 753-1372 partner limits assumed): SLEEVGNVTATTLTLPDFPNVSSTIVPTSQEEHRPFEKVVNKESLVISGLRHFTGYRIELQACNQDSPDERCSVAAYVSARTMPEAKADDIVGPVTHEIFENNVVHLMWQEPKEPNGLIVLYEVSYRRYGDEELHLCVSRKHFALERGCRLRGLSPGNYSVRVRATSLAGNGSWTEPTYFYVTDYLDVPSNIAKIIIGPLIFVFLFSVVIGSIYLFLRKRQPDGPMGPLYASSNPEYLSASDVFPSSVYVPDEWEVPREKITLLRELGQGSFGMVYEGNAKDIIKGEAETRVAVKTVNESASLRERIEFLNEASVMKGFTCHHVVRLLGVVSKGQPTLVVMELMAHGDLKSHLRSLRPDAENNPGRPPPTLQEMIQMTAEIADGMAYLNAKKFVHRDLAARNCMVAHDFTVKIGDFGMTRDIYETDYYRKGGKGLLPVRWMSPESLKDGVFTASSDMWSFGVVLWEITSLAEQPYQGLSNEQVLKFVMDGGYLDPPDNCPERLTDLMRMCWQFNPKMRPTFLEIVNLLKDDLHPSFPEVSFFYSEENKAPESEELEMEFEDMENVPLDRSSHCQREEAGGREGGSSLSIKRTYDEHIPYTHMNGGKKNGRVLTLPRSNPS

| Structure (SMILES) | amount of 125I-insulin internalized, difference vs vehicle (increase) [1] | microvessel surface binding of 125I-insulin, difference vs vehicle (increase) [1] | 125I-S961 binding (%Inj/g), effect of pre-treatment (in words) (insulin receptor) | decrease in hypothalamic BBB transport of 125I-transferrin (blood-brain barrier [2]) | effect on 125I-insulin transport (Ki) or vascular binding (Vi) (in words) (blood-brain barrier [3]; 5 μM monensin pre-treatment 10 min) | Vi of 125I-insulin (blood-brain barrier [3]; [4]) | effect on 125I-insulin transport (Ki) (in words) (blood-brain barrier [3]; [4]) | Ki of 125I-insulin (blood-brain barrier [3]; hypothalamus, 2 μg/ml filipin pre-perfusion 10 min, ns, slope did not significantly differ from zero) | Ki of 125I-insulin (blood-brain barrier [3]; hypothalamus, 2 μg/ml filipin pre-perfusion 10 min, ns, slope did not significantly differ from zero, listed as filipin) | Ki of 125I-insulin (blood-brain barrier [3]; [5]) | Vi of 125I-insulin (blood-brain barrier [3]; [5]) | effect on 125I-insulin transport (Ki) or vascular binding (Vi) (in words) (blood-brain barrier [3]; 2 μg/ml filipin pre-perfusion 10 min) | Ki of 125I-insulin (blood-brain barrier [3]; [6]) | Vi of 125I-insulin (blood-brain barrier [3]; [6]) |
| --- | --- | --- | --- | --- | --- | --- | --- | --- | --- | --- | --- | --- | --- | --- |
| CN(C)CCCN1c2ccccc2Sc2ccc(Cl)cc21 [CPZ, chlorpromazine] | 76.9% | 42.2% |  |  |  |  |  |  |  |  |  |  |  |  |
| CC[C@@]1([C@@H]2O[C@@H]([C@H]3O[C@@](O)(CO)[C@H](C)C[C@@H]3C)C[C@@H]2C)CC[C@H]([C@]2(C)CC[C@]3(C[C@H](O)[C@@H](C)[C@@H]([C@@H](C)[C@@H](OC)[C@H](C)C(=O)O)O3)O2)O1 [Monensin] | 33.7% | 36.3% | significantly increased | 80% | no effect |  |  |  |  |  |  |  |  |  |
| CCCCC[C@@H](O)[C@H]1C(=O)O[C@H](C)[C@@H](O)/C=C/C=C/C=C/C=C/C=C(\C)[C@@H](O)C[C@H](O)C[C@H](O)C[C@H](O)C[C@H](O)C[C@H](O)C[C@@H]1O [Filipin, Filipin III] |  |  |  |  |  | 8.4 ± 2.3 µL/g | does limit transport | 0.94 ± 0.66 µL/g/min | 0.94 ± 0.43 µL/g/min | 3.06 ± 0.93 µL/g/min | 2.8 ± 3.0 µL/g | no effect | 0.94 ± 0.43 µL/g/min | 5.0 ± 1.5 µL/g |
